According to US20020026059A1 (priority 1995, published 2002):

tested on: Venturia inaequalis; test: Venturia test (apple)/protective; format: in vivo; conditions: apple plants, protective spray, active compound concentration of 10 ppm, evaluation 12 days after inoculation
Method: Venturia test (apple)/protective
Solvent: 4.7 parts by weight of acetone Emulsifier: 0.3 parts by weight of alkylaryl polyglycol ether
(§1) To produce a suitable preparation of active compound, 1 part by weight of active compound is mixed with the stated amounts of solvent and emulsifier, and the concentrate is diluted with water to the desired concentration.
To test for protective activity, young plants are sprayed with the preparation of active compound to run-off point. After the spray coating has dried on, the plants are inoculated with an aqueous suspension of conidia of the causative organism of apple scab (Venturia inaequalis) and then remain in an incubation cupboard at 20° C. and 100% relative atmospheric humidity for 1 day.
The plants are then placed in a greenhouse at 20° C. and a relative atmospheric humidity of about 70%.
Evaluation is carried out 12 days after the inoculation. 0% means an efficacy corresponding to that of the control, 100% means that no infestation is observed.

Row | Structure (SMILES) | Efficacy in %, based on the untreated control [%]
1 | CN(C)OS(=O)n1c(C#N)nc2cc3c(cc21)OC(F)(F)C(F)(F)O3 (stereo not drawn) | 43
2 | CN(C)S(=O)(=O)n1c(C#N)nc2cc3c(cc21)OC(F)(F)C(F)(F)O3 [comparison substance (A), 2-Cyano-1-dimethylaminosulphonyl-6,6,7,7-tetrafluoro-[1,4]dioxino[2,3-f]benzimidazole] | 43
3 | CN(C)OS(=O)n1c(C#N)nc2cc3c(cc21)OC(F)(F)O3 (stereo not drawn) [drawing 350] | 0
4 | Cc1noc(C)c1S(=O)(=O)n1c(C#N)nc2cc3c(cc21)OC(F)(F)O3 [drawing 351] | 81
5 | Cc1noc(C)c1S(=O)(=O)n1c(C#N)nc2cc3c(cc21)OC(F)(F)C(F)(F)O3 [drawing 352] | 58
6 | N#Cc1nc2cc3c(cc2n1S(=O)(=O)c1cccs1)OC(F)(F)C(F)(F)O3 [drawing 353] | 87

tested on: Phytophthora infestans; test: whole plant or invertebrate; format: in vivo; conditions: in Solanum lycopersicum, 72 h, read-out: Efficacy in %, based on the untreated control

Row | Structure (SMILES) | pest or weed control at 100 ppm [%]
7 | COC(=O)c1sccc1S(=O)(=O)n1c(C#N)nc2cc3c(cc21)OC(F)(F)C(F)(F)O3 | 82
8 | Cc1nn(C)c(Cl)c1S(=O)(=O)n1c(C#N)nc2cc3c(cc21)OC(F)(F)O3 | 94
9 | N#Cc1nc2cc3c(cc2n1S(=O)Oc1cccs1)OC(F)(F)O3 (stereo not drawn) | 94
10 | COC(=O)c1csc(OS(=O)n2c(C#N)nc3cc4c(cc32)OC(F)(F)O4)c1C (stereo not drawn) | 97
11 | Cc1noc(C)c1S(=O)(=O)n1c(C#N)nc2cc3c(cc21)OC(F)(F)O3 [drawing 354] | 100
12 | Cc1noc(C)c1S(=O)(=O)n1c(C#N)nc2cc3c(cc21)OC(F)(F)C(F)(F)O3 [drawing 355] | 97
13 | N#Cc1nc2cc3c(cc2n1S(=O)(=O)c1cccs1)OC(F)(F)C(F)(F)O3 [drawing 356] | 94
14 | Cc1oncc1OS(=O)n1c(C#N)nc2cc3c(cc21)OC(F)(F)C(F)(F)O3 (stereo not drawn) [drawing 358] | 64
15 | Cc1nn(C)c(Cl)c1S(=O)(=O)n1c(C#N)nc2cc3c(cc21)OC(F)(F)C(F)(F)O3 [drawing 359] | 94
16 | Cc1oncc1OS(=O)n1c(C#N)nc2cc3c(cc21)OC(F)(F)O3 (stereo not drawn) [drawing 362] | 96
17 | Cc1noc(C)c1S(=O)(=O)n1c(C#N)nc2c(Br)cc(C(F)(F)F)cc21 [drawing 363] | 74
18 | Cc1noc(C)c1OS(=O)n1c(C#N)nc2cc3c(cc21)OC(F)(F)C(F)(F)O3 (stereo not drawn) [drawing 365] | 97

tested on: Plasmopara viticola; test: Plasmopara test (vines)/protective; format: in vivo; conditions: Plasmopara viticola, 144 h, protective spray, active compound concentration of 100 ppm, evaluation 6 days after inoculation, read-out: Efficacy in %, based on the untreated control
Method: Plasmopara test (vines)/protective
Solvent: 4.7 parts by weight of acetone Emulsifier: 0.3 parts by weight of alkyl-aryl polyglycol ether
as §1
To test for protective activity, young plants are sprayed with the preparation of active compound to run-off point. After the spray coating has dried on, the plants are inoculated with an aqueous suspension of spores of Plasmopara viticola and then remain in a humidity chamber at 20-22° C. and 100% relative atmospheric humidity for 1 day. The plants are subsequently placed in a greenhouse at 21° C. and 90% atmospheric humidity for […]. The plants are then moistened and placed in a humidity chamber for 1 day.
Evaluation is carried out 6 days after the inoculation. 0% means an efficacy corresponding to that of the control, whereas an efficacy of 100% means that no infestation is observed.

Row | Structure (SMILES) | pest or weed control at 100 ppm [%]
19 | Cc1noc(C)c1OS(=O)N1C(C#N)=NC2C=C3OC(F)(F)OC3=CC21 (stereo not drawn) | 100
20 | N#Cc1nc2cc3c(cc2n1S(=O)Oc1cccs1)OC(F)(F)C(F)(F)O3 (stereo not drawn) | 80
21 | COC(=O)c1sccc1OS(=O)n1c(C#N)nc2cc3c(cc21)OC(F)(F)C(F)(F)O3 (stereo not drawn) | 100
22 | Cc1noc(C)c1OS(=O)n1c(C#N)nc2cc3c(cc21)OC(F)(F)C(F)(F)O3 (stereo not drawn) [drawing 367] | 100
23 | Cc1oncc1OS(=O)n1c(C#N)nc2cc3c(cc21)OC(F)(F)C(F)(F)O3 (stereo not drawn) [drawing 370] | 100
24 | Cc1nn(C)c(Cl)c1S(=O)(=O)n1c(C#N)nc2cc3c(cc21)OC(F)(F)C(F)(F)O3 [drawing 371] | 74
25 | Cc1oncc1OS(=O)n1c(C#N)nc2cc3c(cc21)OC(F)(F)O3 (stereo not drawn) [drawing 372] | 100
26 | Cc1noc(C)c1S(=O)(=O)n1c(C#N)nc2c(Br)cc(C(F)(F)F)cc21 [drawing 373] | 95

same assay, conditions: protective spray, active compound concentration of 100 ppm, evaluation 6 days after inoculation

Row | Structure (SMILES) | Efficacy in %, based on the untreated control [%]
27 | Cc1noc(C)c1OS(=O)n1c(C#N)nc2cc3c(cc21)OC(F)(F)C(F)(F)O3 (stereo not drawn) [drawing 374] | 100
